Source: publication PMC10366214, “The anti-Alzheimer potential of novel spiroindolin-1,2-diazepine derivatives as targeted cholinesterase inhibitors with modified substituents” (Scientific Reports, 2023)
Like-named read-outs stand apart in the source and are kept apart here.

Key:
AChE = AChE (Homo sapiens, UniProt P22303); assay: biochemical; conditions: for inhibition at 50 µM: read-out: AChE % inhibition at 50 µM
Procedure: (§1) Cholinesterase inhibitory activities of all analogs were evaluated spectrometrically using the modified Ellman method as previously reported[40],[41]. […] The absorbance of each well was measured at 415 nm using a microplate reader. IC50 values and inhibition values were calculated with the software GraphPad Prism as the mean of three independent experiments and are expressed as mean ± SEM.

BChE = BChE (Homo sapiens, UniProt P06276); assay: BChE inhibition, modified Ellman method; type: biochemical; conditions: for inhibition at 50 µM: read-out: BChE % inhibition at 50 µM
Chain of BChE (P06276 29-602): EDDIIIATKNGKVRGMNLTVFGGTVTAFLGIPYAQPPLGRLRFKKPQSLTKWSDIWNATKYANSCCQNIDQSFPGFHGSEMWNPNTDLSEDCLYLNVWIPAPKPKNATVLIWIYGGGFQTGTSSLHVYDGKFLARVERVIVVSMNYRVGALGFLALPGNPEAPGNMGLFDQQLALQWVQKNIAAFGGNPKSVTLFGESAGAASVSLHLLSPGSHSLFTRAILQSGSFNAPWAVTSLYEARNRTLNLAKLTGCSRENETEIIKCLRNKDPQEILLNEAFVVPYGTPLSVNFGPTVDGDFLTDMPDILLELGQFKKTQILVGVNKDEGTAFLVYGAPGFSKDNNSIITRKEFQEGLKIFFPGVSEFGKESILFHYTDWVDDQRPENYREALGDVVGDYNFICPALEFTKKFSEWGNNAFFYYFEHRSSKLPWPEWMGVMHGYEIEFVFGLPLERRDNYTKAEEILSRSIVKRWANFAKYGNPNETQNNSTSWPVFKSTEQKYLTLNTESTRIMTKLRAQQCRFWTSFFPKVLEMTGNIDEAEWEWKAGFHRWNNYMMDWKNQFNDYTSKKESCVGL
Procedure: as §1

[1] = 50 µM, mean ± S.E of three to five independent experiments
[2] = mean ± S.E of three to five independent experiments, read-out: AChE IC50
[3] = mean ± S.E of three to five independent experiments, read-out: BChE IC50

Chain of AChE (P22303 32-614): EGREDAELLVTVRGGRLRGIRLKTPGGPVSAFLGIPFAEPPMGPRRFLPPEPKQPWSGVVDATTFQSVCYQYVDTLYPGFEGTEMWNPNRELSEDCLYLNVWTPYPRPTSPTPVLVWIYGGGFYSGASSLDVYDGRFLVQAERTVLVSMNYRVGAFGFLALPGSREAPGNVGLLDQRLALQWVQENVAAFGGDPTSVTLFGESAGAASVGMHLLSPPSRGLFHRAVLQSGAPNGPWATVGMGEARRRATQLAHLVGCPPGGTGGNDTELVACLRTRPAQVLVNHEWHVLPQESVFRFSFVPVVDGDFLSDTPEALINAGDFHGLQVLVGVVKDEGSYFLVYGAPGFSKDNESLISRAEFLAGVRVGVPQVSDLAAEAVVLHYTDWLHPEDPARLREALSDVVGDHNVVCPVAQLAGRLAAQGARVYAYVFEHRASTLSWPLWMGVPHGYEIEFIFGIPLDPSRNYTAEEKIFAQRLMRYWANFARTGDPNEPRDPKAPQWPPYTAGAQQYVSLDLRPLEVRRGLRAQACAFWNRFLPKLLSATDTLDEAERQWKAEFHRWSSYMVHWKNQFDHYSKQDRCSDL

SMILES	inhibition at 50 µM (AChE; [1]) [%]	inhibition at 50 µM (BChE; [1]) [%]	inhibition at 50 µM (AChE) [%]	also measured
Cc1ccc(NC2=C([N+](=O)[O-])C3(C(=O)Nc4ccc(Cl)cc43)C(C#N)=C(N)NN2)cc1 (centres unmarked) [Compound 5a, 3-amino-5'-chloro-6-nitro-2'-oxo-7-(p-tolylamino)-1,2-dihydrospiro[[1,2]diazepine-5,3'-indoline]-4-carbonitrile]	5.37 ± 3.11	18.1 ± 2.88		
COc1ccc(NC2=C([N+](=O)[O-])C3(C(=O)Nc4ccc(Cl)cc43)C(C#N)=C(N)NN2)cc1 (centres unmarked) [Compound 5b, 3-amino-5'-chloro-7-((4-methoxyphenyl)amino)-6-nitro-2'-oxo-1,2-dihydrospiro[[1,2]diazepine-5,3'-indoline]-4-carbonitrile]	42.8 ± 2.15	36.8 ± 2.1		
Cc1ccc(NC2=C([N+](=O)[O-])C3(C(=O)Nc4ccc(Cl)cc43)C(C#N)=C(N)NN2)cc1C (centres unmarked) [Compound 5c, 3-amino-5'-chloro-7-((3,4-dimethylphenyl)amino)-6-nitro-2'-oxo-1,2-dihydrospiro[[1,2]diazepine-5,3'-indoline]-4-carbonitrile]		37 ± 3.78		AChE % inhibition at 50 µM (AChE; [1]): Not active
COc1ccc(OC)c(NC2=C([N+](=O)[O-])C3(C(=O)Nc4ccc(Cl)cc43)C(C#N)=C(N)NN2)c1 (centres unmarked) [Compound 5d, 3-amino-5'-chloro-7-((2,5-dimethoxyphenyl)amino)-6-nitro-2'-oxo-1,2-dihydrospiro[[1,2]diazepine-5,3'-indoline]-4-carbonitrile]	27.8 ± 5.26	19.2 ± 4.07		
N#CC1=C(N)NNC(Nc2ccc(Cl)cc2)=C([N+](=O)[O-])C12C(=O)Nc1ccc(Cl)cc12 (centres unmarked) [Compound 5e, 3-amino-5'-chloro-7-((4-chlorophenyl)amino)-6-nitro-2'-oxo-1,2-dihydrospiro[[1,2]diazepine-5,3'-indoline]-4-carbonitrile]	13.4 ± 3.34			BChE % inhibition at 50 µM (BChE; [1]): Not active
Cc1ccccc1NC1=C([N+](=O)[O-])C2(C(=O)Nc3ccc([N+](=O)[O-])cc32)C(C#N)=C(N)NN1 (centres unmarked) [Compound 5f, 3-amino-5',6-dinitro-2'-oxo-7-(o-tolylamino)-1,2-dihydrospiro[[1,2]diazepine-5,3'-indoline]-4-carbonitrile]			59.6 ± 6.75	IC50 (AChE): 22.4 ± 2.11 µM; inhibition at 50 µM (BChE): 23.3 ± 3.97%
Cc1ccc(NC2=C([N+](=O)[O-])C3(C(=O)Nc4ccc([N+](=O)[O-])cc43)C(C#N)=C(N)NN2)cc1 (centres unmarked) [Compound 5g, 3-amino-5',6-dinitro-2'-oxo-7-(p-tolylamino)-1,2-dihydrospiro[[1,2]diazepine-5,3'-indoline]-4-carbonitrile]			66.3 ± 6.57	IC50 (AChE): 5.88 ± 0.84 µM; inhibition at 50 µM (BChE): 24.4 ± 2.96%
Cc1ccc(NC2=C([N+](=O)[O-])C3(C(=O)Nc4ccc([N+](=O)[O-])cc43)C(C#N)=C(N)NN2)cc1C (centres unmarked) [Compound 5h, 3-amino-7-((3,4-dimethylphenyl)amino)-5',6-dinitro-2'-oxo-1,2-dihydrospiro[[1,2]diazepine-5,3'-indoline]-4-carbonitrile]			48.6 ± 2.7	BChE % inhibition at 50 µM (BChE; [1]): Not active
COc1ccc(NC2=C([N+](=O)[O-])C3(C(=O)Nc4ccc([N+](=O)[O-])cc43)C(C#N)=C(N)NN2)cc1 (centres unmarked) [Compound 5i, 3-amino-7-((4-methoxyphenyl)amino)-5',6-dinitro-2'-oxo-1,2-dihydrospiro[[1,2]diazepine-5,3'-indoline]-4-carbonitrile]			46.1 ± 3.38	inhibition at 50 µM (BChE): 31.2 ± 3.65%
COc1ccc(OC)c(NC2=C([N+](=O)[O-])C3(C(=O)Nc4ccc([N+](=O)[O-])cc43)C(C#N)=C(N)NN2)c1 (centres unmarked) [Compound 5j, 3-amino-7-((2,5-dimethoxyphenyl)amino)-5',6-dinitro-2'-oxo-1,2-dihydrospiro[[1,2]diazepine-5,3'-indoline]-4-carbonitrile]			61.7 ± 3.77	IC50 (AChE): 20.9 ± 2.96 µM; IC50 (BChE): 17.4 ± 3.29 µM; inhibition at 50 µM (BChE): 58.4 ± 3.55%
N#CC1=C(N)NNC(Nc2ccc(Cl)cc2)=C([N+](=O)[O-])C12C(=O)Nc1ccc([N+](=O)[O-])cc12 (centres unmarked) [Compound 5k, 3-amino-7-((4-chlorophenyl)amino)-5',6-dinitro-2'-oxo-1,2-dihydrospiro[[1,2]diazepine-5,3'-indoline]-4-carbonitrile]			24.6 ± 1.7	inhibition at 50 µM (BChE): 17.9 ± 1.81%
Cc1ccccc1NC1=C([N+](=O)[O-])C2(C(=O)Nc3c(Cl)cc(Cl)cc32)C(C#N)=C(N)NN1 (centres unmarked) [Compound 5m, 3-amino-5',7'-dichloro-6-nitro-2'-oxo-7-(o-tolylamino)-1,2-dihydrospiro[[1,2]diazepine-5,3'-indoline]-4-carbonitrile]	24.8 ± 5.48	41.9 ± 6.47		
COc1ccc(NC2=C([N+](=O)[O-])C3(C(=O)Nc4c(Cl)cc(Cl)cc43)C(C#N)=C(N)NN2)cc1 (centres unmarked) [Compound 5n, 3-amino-5',7'-dichloro-7-((4-methoxyphenyl)amino)-6-nitro-2'-oxo-1,2-dihydrospiro[[1,2]diazepine-5,3'-indoline]-4-carbonitrile]	35.4 ± 7.54	46.5 ± 4.77		
Cc1ccc(NC2=C([N+](=O)[O-])C3(C(=O)Nc4c(Br)cc(Br)cc43)C(C#N)=C(N)NN2)cc1 (centres unmarked) [Compound 5o, 3-amino-5',7'-dibromo-6-nitro-2'-oxo-7-(p-tolylamino)-1,2-dihydrospiro[[1,2]diazepine-5,3'-indoline]-4-carbonitrile]	37.6 ± 4.74	14.1 ± 3.7		
COc1ccc(OC)c(NC2=C([N+](=O)[O-])C3(C(=O)Nc4c(Br)cc(Br)cc43)C(C#N)=C(N)NN2)c1 (centres unmarked) [Compound 5p, 3-amino-5',7'-dibromo-7-((2,5-dimethoxyphenyl)amino)-6-nitro-2'-oxo-1,2-dihydrospiro[[1,2]diazepine-5,3'-indoline]-4-carbonitrile]	73.4 ± 4.21	59.3 ± 3.15		IC50 (AChE; [2]): 11.3 ± 1.65 µM; IC50 (BChE; [3]): 37.9 ± 4.85 µM
N#CC1=C(N)NNC(Nc2cccc(O)c2)=C([N+](=O)[O-])C12C(=O)Nc1c(Br)cc(Br)cc12 (centres unmarked) [Compound 5q, 3-amino-5',7'-dibromo-7-((3-hydroxyphenyl)amino)-6-nitro-2'-oxo-1,2-dihydrospiro[[1,2]diazepine-5,3'-indoline]-4-carbonitrile]	63.1 ± 4.43	37.1 ± 0.84		IC50 (AChE; [2]): 12 ± 2.33 µM
N#CC1=C(N)NNC(Nc2ccc(O)cc2)=C([N+](=O)[O-])C12C(=O)Nc1c(Br)cc(Br)cc12 (centres unmarked) [Compound 5r, 3-amino-5',7'-dibromo-7-((4-hydroxyphenyl)amino)-6-nitro-2'-oxo-1,2-dihydrospiro[[1,2]diazepine-5,3'-indoline]-4-carbonitrile]	46.7 ± 1.92	51.7 ± 1.29		IC50 (BChE; [3]): 45.7 ± 5.62 µM
COc1ccc(NC2=C([N+](=O)[O-])C3(C(=O)Nc4c(C(F)(F)F)cccc43)C(C#N)=C(N)NN2)cc1 (centres unmarked) [Compound 5s, 3-amino-7-((4-methoxyphenyl)amino)-6-nitro-2'-oxo-7'-(trifluoromethyl)-1,2-dihydrospiro[[1,2]diazepine-5,3'-indoline]-4-carbonitrile]	56 ± 4.39	13.4 ± 3.46		IC50 (AChE; [2]): 17.8 ± 2.79 µM
Cc1ccccc1NC1=C([N+](=O)[O-])C2(C(=O)Nc3c(C(F)(F)F)cccc32)C(C#N)=C(N)NN1 (centres unmarked) [Compound 5t, 3-amino-6-nitro-2'-oxo-7-(o-tolylamino)-7'-(trifluoromethyl)-1,2-dihydrospiro[[1,2]diazepine-5,3'-indoline]-4-carbonitrile]	24.7 ± 1.94	7.31 ± 5.07		
